Assays:
[1] = system: Mycobacterium smegmatis strain M6-3; test: Relative antibacterial potency, paper-disc agar diffusion method; format: cell-based; conditions: relative to tallysomycin A standard=1000 mcg/mg
Protocol: The relative antibacterial potencies (tallysomycin A standard=1000 mcg/mg) of the tallysomycin derivatives were determined by the paper-disc agar diffusion method using Mycobacterium smegmatis strain M6-3 as the assay organism.

[2] = system: Lymphocytic leukemia P388; test: animal or person; format: in vivo, BDF1 mice; conditions: copper-chelated form unless otherwise stated; for Antitumor activity P388 (ED125): ip, once daily 9 days, dose giving T/C survival of 125%; for Antitumor therapeutic index P388: single dose LD50/ED125
Excerpt: (§1) The antitumor activity of the tallysomycin derivatives was examined in four experimental tumor systems in mice. Lymphocytic leukemia P388 and Lewis lung carcinoma were implanted intraperitoneally into BDF1 mice of either sex at an inoculum size of 3×10^5 and 5×10^5 cells per mouse, respectively. Sarcoma 180 ascites tumor was inoculated intraperitoneally into male dd-strain mice with […] per mouse. Melanotic melanoma B16 was implanted subcutaneously into BDF1 mice with 5×10^5 cells per mouse. Twenty-four hours after the implantation of tumor cells, graded doses of test compounds were administered to mice intraperitoneally in an injection volume of 0.2 ml. per 10 grams of body weight. Test compounds were given once daily for 9 days (qd 1→9 schedule) except for the mice inoculated with Lewis lung carcinoma which were treated for 11 days (qd 1→11). Death or survival of the treated and non-treated (control) animals was recorded daily during the observation period of 45 days after the implantation of tumor cells, and the median survival time was calculated for each of the test (T) and control (C) groups. […] The actual dose giving a T/C of 125% was estimated by linear regression analysis and defined as the effective dose 125 or ED125. The effective dose 150 (ED150) was employed for the evaluation of antitumor effect against Sarcoma 180. In the B16 melanoma experiment the tumor size was measured on day 16 after tumor inoculation, and the dose giving 50% inhibition of tumor growth (ID50) was calculated from regression lines.
(§2) The antitumor therapeutic index was calculated for each derivative from the ratio of toxicity and antitumor activity.

[3] = system: Lewis lung carcinoma; test: Antitumor activity in mice, Lewis lung carcinoma; format: in vivo, BDF1 mice; conditions: copper-chelated form unless otherwise stated; for Antitumor activity Lewis lung (ED125): ip, once daily 11 days, dose giving T/C survival of 125%; for Antitumor therapeutic index Lewis Lung: single dose LD50/ED125
Excerpt: as §1, §2

[4] = system: Aspergillus fumigatus IAM 2593; test: MIC, two-fold agar dilution method; format: cell-based; conditions: Sabouraud agar
Protocol: (§3) The minimum inhibitory concentrations (MIC) of the semibiosynthetic tallysomycin derivatives of the present invention were determined against fungi and gram-positive, gram-negative and acid-fast bacteria by the two-fold agar dilution method. Nutrient agar was used for bacteria and Sabouraud agar for fungi. The results are shown in the table below comparatively with tallysomycin A and B.

[5] = system: Candida albicans IAM 4888; test: MIC, two-fold agar dilution method; format: cell-based; conditions: Sabouraud agar
Protocol: as §3

[6] = system: Escherichia coli NIHJ; test: MIC, two-fold agar dilution method; format: cell-based; conditions: nutrient agar
Protocol: as §3

[7] = system: Bacillus subtilis PCI 219; test: MIC, two-fold agar dilution method; format: cell-based; conditions: nutrient agar
Protocol: as §3

[8] = system: Proteus mirabilis A9554; test: MIC, two-fold agar dilution method; format: cell-based; conditions: nutrient agar
Protocol: as §3

[9] = system: Mycobacterium 607; test: MIC, two-fold agar dilution method; format: cell-based; conditions: nutrient agar
Protocol: as §3

[10] = system: Sarcina lutea PCI1001; test: MIC, two-fold agar dilution method; format: cell-based; conditions: nutrient agar
Protocol: as §3

[11] = system: Staphylococcus aureus Smith; test: MIC, two-fold agar dilution method; format: cell-based; conditions: nutrient agar
Protocol: as §3

[12] = system: Melanotic melanoma B16; test: Antitumor activity in mice, melanotic melanoma B16; format: in vivo, BDF1 mice; conditions: copper-chelated form unless otherwise stated; for Antitumor activity B16 (ID50): ip, once daily 9 days, 50% inhibition of tumor growth, day 16, 23040 min; for Antitumor therapeutic index B16: single dose LD50/ID50
Excerpt: as §1, §2

[13] = system: lysogenic bacterium E. coli W1709 (λ); test: Prophage induction of lysogenic bacterium (ILB activity); format: cell-based; conditions: t/c ratio of plaque counts greater than 3.0
Protocol: The activity of prophage induction of lysogenic bacterium E. coli W1709 (λ) was determined according to the method disclosed by Lein et al. in Nature 196: 783-784 (1962). The plaque count was made on the agar plate containing test compound (t) and control plate (c). A t/c ratio of the plaque counts of greater than 3.0 was defined to be a significant level and lysogenic induction activity (ILB activity) was expressed by the minimum inducible concentration of the test compound.

[14] = Acute toxicity, single dose LD50; format: in vivo, dd mice; conditions: ip, 30 days observation, copper-chelated form unless otherwise stated
Protocol: Graded doses of test compounds were administered intraperitoneally to groups of dd mice. The injection was given one time only or once daily for 9 consecutive days. Death or survival of the animals was recorded for 30 days after the last dose of test compound to calculate the single or multiple median lethal dose (LD50).

[15] = system: Sarcoma 180; test: animal or person; format: in vivo, dd-strain mice; conditions: copper-chelated form unless otherwise stated; for Antitumor activity S180 (ED150): ip, once daily 9 days, effective dose 150, survival; for Antitumor therapeutic index S180: single dose LD50/ED150
Excerpt: as §1, §2

SMILES | Antibacterial potency [1] | Antitumor activity P388 (ED125) [2] [mg/kg/day] | Antitumor therapeutic index P388 [2] | Antitumor activity Lewis lung (ED125) [3] [mg/kg/day] | Antitumor therapeutic index Lewis Lung [3] | minimum inhibitory concentration (MIC) [4] | minimum inhibitory concentration (MIC) [5] | minimum inhibitory concentration (MIC) [6] | minimum inhibitory concentration (MIC) [7] | minimum inhibitory concentration (MIC) [8] | minimum inhibitory concentration (MIC) [9] | minimum inhibitory concentration (MIC) [10] | minimum inhibitory concentration (MIC) [11] | Antitumor activity B16 (ID50) [12] [mg/kg/day] | Antitumor therapeutic index B16 [12] | ILB activity (minimum inducible concentration) [13] [µg/mL] | LD50 single dose [14] [mg/kg/day] | Antitumor activity S180 (ED150) [15] [mg/kg/day] | Antitumor therapeutic index S180 [15]
Cc1c(N)nc(C(CC(N)=O)NCC(N)C(N)=O)nc1C(=O)NC(C(=O)NC(C)C(O)CC(=O)NC(C(=O)NC(OC1OC(C)C(N)C(O)C1O)C(O)c1nc(-c2nc(C(=O)NCCCNCCO)cs2)cs1)C(C)O)C(OC1OC(CO)C(O)C(O)C1OC1OC(CO)C(O)C(OC(N)=O)C1O)c1c[nH]cn1 (stereo not shown) [Tallysomycin S6b] | 340 μ/mg | 2.2 | 14 | 0.17 | 176 | 0.8 | 25 | 0.4 | 0.02 | 3.1 | 0.2 | 12.5 | 6.3 | 0.22 | 136 | 0.08 | 30 | 0.08 | 375
Cc1c(N)nc(C(CC(N)=O)NCC(N)C(N)=O)nc1C(=O)NC(C(=O)NC(C)C(O)CC(=O)NC(C(=O)NC(OC1OC(C)C(N)C(O)C1O)C(O)c1nc(-c2nc(C(=O)NCCCC(N)CC(=O)NCCC[S+](C)C)cs2)cs1)C(C)O)C(OC1OC(CO)C(O)C(O)C1OC1OC(CO)C(O)C(OC(N)=O)C1O)c1c[nH]cn1 (stereo not shown) [Tallysomycin S2a] | 350 μ/mg | > 3.0 | < 8 | 0.14 | 179 | 0.4 | 6.3 | < 0.05 | < 0.05 | 0.2 | < 0.05 | 0.8 | 0.2 | 0.17 | 147 | 0.31 | 25 | 0.07 | 357
Cc1c(N)nc(C(CC(N)=O)NCC(N)C(N)=O)nc1C(=O)NC(C(=O)NC(C)C(O)CC(=O)NC(C(=O)NC(OC1OC(C)C(N)C(O)C1O)C(O)c1nc(-c2nc(C(=O)NCCCC(N)CC(=O)NCCCN)cs2)cs1)C(C)O)C(OC1OC(CO)C(O)C(O)C1OC1OC(CO)C(O)C(OC(N)=O)C1O)c1c[nH]cn1 (stereo not shown) [Tallysomycin S1a] | 1,075 μ/mg | 1.2 | 21 |  |  | 0.8 | 3.1 | 0.1 | < 0.003 | 0.4 | 0.012 | 0.1 | 0.4 | 0.84 | 30 | 0.16 | 25 | 0.07 | 357
Cc1c(N)nc(C(CC(N)=O)NCC(N)C(N)=O)nc1C(=O)NC(C(=O)NC(C)C(O)CC(=O)NC(C(=O)NC(OC1OC(C)C(N)C(O)C1O)C(O)c1nc(-c2nc(C(=O)NCCCN(C)C)cs2)cs1)C(C)O)C(OC1OC(CO)C(O)C(O)C1OC1OC(CO)C(O)C(OC(N)=O)C1O)c1c[nH]cn1 (stereo not shown) [Tallysomycin S7b] | 380 μ/mg | 2.1 | 14 |  |  | 0.4 | > 50 | 0.4 | 0.1 | 6.3 | 3.1 | 12.5 | 6.3 | 0.16 | 188 | 0.08 | 30 | 0.14 | 214
Cc1c(N)nc(C(CC(N)=O)NCC(N)C(N)=O)nc1C(=O)NC(C(=O)NC(C)C(O)CC(=O)NC(C(=O)NC(OC1OC(C)C(N)C(O)C1O)C(O)c1nc(-c2nc(C(=O)NCCCC(N)CC(=O)NCCCCN)cs2)cs1)C(C)O)C(OC1OC(CO)C(O)C(O)C1OC1OC(CO)C(O)C(OC(N)=O)C1O)c1c[nH]cn1 (stereo not shown) [Tallysomycin S10a] | 1,450 μ/mg | 0.28 | 96 |  |  | 1.6 | 3.1 | 0.4 | 0.04 | 0.8 | 0.2 | 0.4 | 1.6 | 0.39 | 69 | 0.16 | 27 | 0.08 | 338
Cc1c(N)nc(C(CC(N)=O)NCC(N)C(N)=O)nc1C(=O)NC(C(=O)NC(C)C(O)CC(=O)NC(C(=O)NC(OC1OC(C)C(N)C(O)C1O)C(O)c1nc(-c2nc(C(=O)NCCCN3CCOCC3)cs2)cs1)C(C)O)C(OC1OC(CO)C(O)C(O)C1OC1OC(CO)C(O)C(OC(N)=O)C1O)c1c[nH]cn1 (stereo not shown) [Tallysomycin S12b] | 390 μ/mg | 1.30 | > 38 |  |  | 25 | > 100 | 1.6 | 0.4 | 50 | 0.2 | 12.5 | 12.5 | 1.30 | > 38 | 0.31 | > 50 | 0.06 | > 833
